In patent publication US6462037B1, “1,4-benzodiazepin-2-ones useful as HIV reverse transcriptase inhibitors” (Bristol-Myers Squibb Pharma Company, priority 1999, dated 2002):

melting point	SMILES
168 to 170 °C	COc1cccc(F)c1CN1CC(=O)Nc2ccc(F)c(F)c2C1C(F)(F)F (stereo not drawn) [compound 132, 6,7-Difluoro-4-(2-fluoro-6-methoxybenzyl)-1,5-dihydro-5-(trifluoromethyl)-1,4-benzodiazepin-2-one]
174 to 176 °C	CC(C)C#CC1(C(F)(F)F)c2c(ccc(F)c2F)NC(=O)CN1O (stereo not drawn) [compound 133, 6,7-Difluoro-4-hydroxy-5-(3-methyl-1-butynyl)-1,5-dihydro-5-(trifluoromethyl)-1,4-benzodiazepin-2-one]
185 to 187 °C	CC(C)C#CC1(C(F)(F)F)N=CC(=O)Nc2ccc(Cl)cc21 (stereo not drawn) [compound 134, 7-Chloro-5-(3-methyl-1-butynyl)-1,5-dihydro-5-(trifluoromethyl)-1,4-benzodiazepin-2-one]
196 to 198 °C	O=C1C=NC(C#Cc2cccs2)(C(F)(F)F)c2cc(Cl)ccc2N1 (stereo not drawn) [compound 135, 7-Chloro-5-(2-thienylethynyl)-1,5-dihydro-5-(trifluoromethyl)-1,4-benzodiazepin-2-one]
123 to 125 °C	CCCCN1CC(=O)Nc2ccc(Cl)cc2C1(C#CC(C)C)C(F)(F)F (stereo not drawn) [compound 136, 7-Chloro-4-butyl-5-(3-methyl-1-butynyl)-1,5-dihydro-5-(trifluoromethyl)-1,4-benzodiazepin-2-one]
170 to 171 °C	O=C1CN(Cc2ccccc2F)C(C(F)(F)F)c2cc(Cl)ccc2N1 (stereo not drawn) [compound 137, 7-Chloro-4-(2-fluorobenzyl)-1,5-dihydro-5-(trifluoromethyl)-1,4-benzodiazepin-2-one]
161 to 162 °C	O=C1CN(CCc2ccccc2Cl)C(C(F)(F)F)c2cc(Cl)ccc2N1 (stereo not drawn) [compound 138, 7-Chloro-4-(2-(2-chlorophenyl)ethyl)-1,5-dihydro-5-(trifluoromethyl)-1,4-benzodiazepin-2-one]
257 to 258 °C	O=C1CN(C(=O)c2ccccc2)C(C(F)(F)F)c2cc(Cl)ccc2N1 (stereo not drawn) [compound 139, 7-Chloro-4-benzoyl-1,5-dihydro-5-(trifluoromethyl)-1,4-benzodiazepin-2-one]
172 to 173 °C	O=C1CN(CCc2ccccc2I)C(C(F)(F)F)c2cc(Cl)ccc2N1 (stereo not drawn) [compound 140, 7-Chloro-4-(2-(2-iodophenyl)ethyl)-1,5-dihydro-5-(trifluoromethyl)-1,4-benzodiazepin-2-one]
208 to 209 °C	O=C1CN(CCc2cccc(Cl)c2)C(C(F)(F)F)c2cc(Cl)ccc2N1 (stereo not drawn) [compound 141, 7-Chloro-4-(2-(3-chlorophenyl)ethyl)-1,5-dihydro-5-(trifluoromethyl)-1,4-benzodiazepin-2-one]
181 to 182 °C	O=C1CN(Cc2cccc(F)c2)C(C(F)(F)F)c2cc(Cl)ccc2N1 (stereo not drawn) [compound 142, 7-Chloro-4-(3-fluorobenzyl)-1,5-dihydro-5-(trifluoromethyl)-1,4-benzodiazepin-2-one]
128 to 129 °C	COc1cccc(OC)c1CN1CC(=O)Nc2ccc(Cl)cc2C1C(F)(F)F (stereo not drawn) [compound 143, 7-Chloro-4-(2,6-dimethoxybenzyl)-1,5-dihydro-5-(trifluoromethyl)-1,4-benzodiazepin-2-one]
182 to 183 °C	COc1ccc(OC)c(CN2CC(=O)Nc3ccc(Cl)cc3C2C(F)(F)F)c1 (stereo not drawn) [compound 144, 7-Chloro-4-(2,5-dimethoxybenzyl)-1,5-dihydro-5-(trifluoromethyl)-1,4-benzodiazepin-2-one]
121 to 122 °C	COc1ccc(OC)c(CN2CC(=O)Nc3ccc(Cl)cc3C2C(F)(F)F)c1F (stereo not drawn) [compound 145, 7-Chloro-4-(2,5-dimethoxy-6-fluorobenzyl)-1,5-dihydro-5-(trifluoromethyl)-1,4-benzodiazepin-2-one]
107 to 108 °C	COc1cccc(F)c1CN1CC(=O)Nc2ccc(Cl)cc2C1C(F)(F)F (stereo not drawn) [compound 146, 7-Chloro-4-(2-methoxy-6-fluorobenzyl)-1,5-dihydro-5-(trifluoromethyl)-1,4-benzodiazepin-2-one]
182 to 183 °C	O=C1CN(Cc2cccc(F)c2F)C(C(F)(F)F)c2cc(Cl)ccc2N1 (stereo not drawn) [compound 147, 7-Chloro-4-(2,3-difluorobenzyl)-1,5-dihydro-5-(trifluoromethyl)-1,4-benzodiazepin-2-one]
134 to 135 °C	O=C1CN(Cc2cc(F)ccc2F)C(C(F)(F)F)c2cc(Cl)ccc2N1 (stereo not drawn) [compound 148, 7-Chloro-4-(2,5-difluorobenzyl)-1,5-dihydro-5-(trifluoromethyl)-1,4-benzodiazepin-2-one]
123 to 124 °C	CCC#CCN1CC(=O)Nc2ccc(Cl)cc2C1C(F)(F)F (stereo not drawn) [compound 149, 7-Chloro-4-(2-pentynyl)-1,5-dihydro-5-(trifluoromethyl)-1,4-benzodiazepin-2-one]
173 to 174 °C	O=C1CN(Cc2cc(Br)cs2)C(C(F)(F)F)c2cc(Cl)ccc2N1 (stereo not drawn) [compound 150, 7-Chloro-4-(4-bromothien-2-ylmethyl)-1,5-dihydro-5-(trifluoromethyl)-1,4-benzodiazepin-2-one]
68 to 70 °C	CC(C)CCN1CC(=O)Nc2ccc(Cl)cc2C1C(F)(F)F (stereo not drawn) [compound 151, 7-Chloro-4-(3-methylbutyl)-1,5-dihydro-5-(trifluoromethyl)-1,4-benzodiazepin-2-one]

melting point	SMILES
86 to 87 °C	C=CCCCN1CC(=O)Nc2ccc(Cl)cc2C1C(F)(F)F (stereo not drawn) [compound 152, 7-Chloro-4-(4-penten-1-yl)-1,5-dihydro-5-(trifluoromethyl)-1,4-benzodiazepin-2-one]
83 to 84 °C	CCC=CCN1CC(=O)Nc2ccc(Cl)cc2C1C(F)(F)F (stereo not drawn) [compound 153, 7-Chloro-4-(2-penten-1-yl)-1,5-dihydro-5-(trifluoromethyl)-1,4-benzodiazepin-2-one]
138 to 139 °C	O=C1CN(CC#Cc2ccccc2)C(C(F)(F)F)c2cc(Cl)ccc2N1 (stereo not drawn) [compound 154, 7-Chloro-4-(3-phenyl-2-propynyl)-1,5-dihydro-5-(trifluoromethyl)-1,4-benzodiazepin-2-one]
170 to 171 °C	COc1ccc(F)c(F)c1CN1CC(=O)Nc2ccc(Cl)cc2C1C(F)(F)F (stereo not drawn) [compound 157, 7-Chloro-4-(2,3-difluoro-6-methoxybenzyl)-1,5-dihydro-5-(trifluoromethyl)-1,4-benzodiazepin-2-one]
156 to 157 °C	COc1cccc(F)c1CN1CC(=O)Nc2ccc(Cl)cc2C1C(F)(F)F (stereo not drawn) [compound 158, 7-Chloro-4-(2-fluoro-6-methoxybenzyl)-1,5-dihydro-5-(trifluoromethyl)-1,4-benzodiazepin-2-one]
177 to 178 °C	CCCCC1(C(F)(F)F)c2cc(Cl)ccc2NC(=O)CN1c1ccccc1 (stereo not drawn) [compound 159, 7-Chloro-4-phenyl-5-butyl-1,5-dihydro-5-(trifluoromethyl)-1,4-benzodiazepin-2-one]
114 to 115 °C	CCC#CCN1CC(=O)Nc2ccc(Cl)cc2C1C(F)(F)F (stereo not drawn) [compound 160, 7-Chloro-4-(2-pentynyl)-1,5-dihydro-5-(trifluoromethyl)-1,4-benzodiazepin-2-one]
187 to 188 °C	O=C1CN(c2ccccc2)C(C(F)(F)F)c2cc(Cl)ccc2N1 (stereo not drawn) [compound 164, 7-Chloro-4-phenyl-1,5-dihydro-5-(trifluoromethyl)-1,4-benzodiazepin-2-one]
181 to 182 °C	C#CCN1CC(=O)Nc2ccc(Cl)cc2C1C(F)(F)F (stereo not drawn) [compound 165, 7-Chloro-4-(2-propynyl)-1,5-dihydro-5-(trifluoromethyl)-1,4-benzodiazepin-2-one]
174 to 175 °C	CC#CCN1CC(=O)Nc2ccc(Cl)cc2C1C(F)(F)F (stereo not drawn) [compound 166, 7-Chloro-4-(2-butynyl)-1,5-dihydro-5-(trifluoromethyl)-1,4-benzodiazepin-2-one]
148 to 149 °C	O=C1C=NC(CC(=O)C2CC2)(C(F)(F)F)c2cc(Cl)ccc2N1 (stereo not drawn) [compound 167, 7-Chloro-5-(2-cyclopropyl-2-ethanonyl)-1,5-dihydro-5-(trifluoromethyl)-1,4-benzodiazepin-2-one]
160 to 161 °C	O=C1C=NC(Cc2ccccc2)(C(F)(F)F)c2cc(Cl)ccc2N1 (stereo not drawn) [compound 168, 7-Chloro-5-benzyl-1,5-dihydro-5-(trifluoromethyl)-1,4-benzodiazepin-2-one]
118 to 119 °C	CC(C)CC1(C(F)(F)F)N=CC(=O)Nc2ccc(Cl)cc21 (stereo not drawn) [compound 169, 7-Chloro-5-(2-methylpropyl)-1,5-dihydro-5-(trifluoromethyl)-1,4-benzodiazepin-2-one]
182 to 183 °C	O=C1C=NC(CCc2ccccc2)(C(F)(F)F)c2cc(Cl)ccc2N1 (stereo not drawn) [compound 170, 7-Chloro-5-(2-phenylethyl)-1,5-dihydro-5-(trifluoromethyl)-1,4-benzodiazepin-2-one]
103 to 104 °C	CCCCCC1(C(F)(F)F)N=C(C)C(=O)Nc2ccc(Cl)cc21 (stereo not drawn) [compound 171, 7-Chloro-3-methyl-5-(4-methylbutyl)-1,5-dihydro-5-(trifluoromethyl)-1,4-benzodiazepin-2-one]
104 to 105 °C	O=C1C=N[C@](C#CC2CC2)(C(F)(F)F)c2cc(Cl)ccc2N1 [compound 174, 7-Chloro-5(S)-(cyclopropylethynyl)-1,5-dihydro-5-(trifluoromethyl)-1,4-benzodiazepin-2-one]
135 to 136 °C	CN1CC(=O)Nc2ccc(Cl)cc2C1(C#CC1CC1)C(F)(F)F (stereo not drawn) [compound 175, 7-Chloro-4-methyl-5-(cyclopropylethynyl)-1,5-dihydro-5-(trifluoromethyl)-1,4-benzodiazepin-2-one]
94 to 95 °C	CCCCCC1(C(F)(F)F)N=C(CC(C)C)C(=O)Nc2ccc(Cl)cc21 (stereo not drawn) [compound 176, 7-Chloro-3-(2-methylpropyl)-5-pentyl-1,5-dihydro-5-(trifluoromethyl)-1,4-benzodiazepin-2-one]
142 to 143 °C	CCCCCC1(C(F)(F)F)N=CC(=O)Nc2ccc(Cl)cc21 (stereo not drawn) [compound 179, 7-Chloro-5-pentyl-1,5-dihydro-5-(trifluoromethyl)-1,4-benzodiazepin-2-one]
